From US8158657B2, “Heterocycles substituted pyridine derivatives and antifungal agent containing thereof” (Eisai R&D Management Co., Ltd., priority 2005, dated 2012)
Values after ≈ are worked out from the molar mass of the structure shown. Like-named read-outs stand apart in the source and are kept apart here.

Legend:
[1] = system: C. albicans CAF2-1 strain; test: Anti-Candida activity, MIC measurement; assay type: cell-based; conditions: CAF21STRAIN, read-out: Anti-Candida Activity (minimum inhibitory concentration, MIC)
Method in brief: (§1)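 C. albicans CAF2-1 was grown 48 h at 30° C. in SDB and diluted in RPMI1640 to 1.2×10^3 cells/mL. Frozen A. fumigatus Tsukuba was diluted to 4.5×10^3 cells/mL. Compounds, two-fold serially diluted in DMSO from 2.5 mg/mL, were cultured aerobically with fungi for 42-48 h at 35° C.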

[2] = system: A. fumigatus Tsukuba strain; test: Anti-Aspergillus activity, MIC measurement; assay type: cell-based; conditions: RPMI1640, 42-48 hours at 35° C., visual inspection, read-out: Anti-Aspergillus Activity (minimum inhibitory concentration, MIC)
Method in brief: as §1

[3] = C. albicans CAF2-1, RPMI1640, 42-48 hours at 35° C., visual inspection

Compound | MIC [1, 3] [µg/mL] | MIC [2] [µg/mL] | MIC [1] [µg/mL]
Nc1ncccc1-c1cc(Cc2ccc(Oc3cccnc3)nc2)no1 [Example 100, 3-(3-(6-(Pyridin-3-yloxy)-pyridin-3-ylmethyl)-isoxazol-5-yl)-pyrindin-2-ylamine] | 3.13 (≈ 9.06 µM) | 6.25 (≈ 18.1 µM) | –
C#CCOc1ccc(Cc2cc(-c3ccc(N)nc3N)on2)cc1 [Example 219, 3-(3-(4-Prop-2-ynyloxy-benzyl)-isoxazol-5-yl)-pyridine-2,6-diamine] | 3.13 (≈ 9.77 µM) | 3.13 (≈ 9.77 µM) | –
Nc1ccc(-c2cc(Cc3ccc(OCc4ccccc4)nc3)no2)cn1 [Example 179, 5-(3-(6-Benzyloxy-pyridin-3-ylmethyl)-isoxazol-5-yl)-pyridin-2-ylamine] | 0.78 (≈ 2.18 µM) | 0.39 (≈ 1.09 µM) | –
Nc1ncccc1-c1cc(Cc2ccc(Oc3ccccc3)nc2)no1 [Example 53, 3-(3-(6-Phenoxy-pyridin-3-ylmethyl)-isoxazol-5-yl)-pyridin-2-ylamine] | 0.2 (≈ 0.581 µM) | 0.2 (≈ 0.581 µM) | –
Nc1ncccc1-c1cc(Cc2ccc(COc3ccc(F)cc3)nc2)no1 [Example 72, 3-(3-(6-(4-Fluoro-phenoxymethyl)-pyridin-3-ylmethyl)-isoxazol-5-yl)pyridin-2-ylamine] | 6.25 (≈ 16.6 µM) | 12.5 (≈ 33.2 µM) | –
COCC(=O)Nc1ccc(-c2cc(Cc3ccc(OCc4ccccc4)nc3)no2)c(N)n1 [Example 226, N-(6-Amino-5-(3-(6-benzyloxy-pyridin-3-ylmethyl)-isoxazol-5-yl)-pyridin-2-yl)-2-methoxy-acetamide] | 0.39 (≈ 0.875 µM) | 0.39 (≈ 0.875 µM) | –
Nc1ncccc1-c1cc(Cc2ccc(OCc3ccccn3)cc2)on1 [Example 189, 3-(5-(4-(Pyridin-2-ylmethoxy)-benzyl)-isoxazol-3-yl)-pyridin-2-ylamine] | 0.05 (≈ 0.14 µM) | 0.2 (≈ 0.558 µM) | –
Nc1ccc(-c2cc(Cc3ccc(OCc4ccc(F)c(F)c4)nc3)no2)c(N)n1 [Example 152, 3-(3-(6-(3,4-Difluoro-benzyloxy)-pyridin-3-ylmethyl)-isoxazol-5-yl)-pyridin-2,6-diamine] | 0.78 (≈ 1.91 µM) | 0.39 (≈ 0.953 µM) | –
Nc1ccc(-c2cc(Cc3ccc(Cc4ccc(F)cc4)o3)no2)c(N)n1 [Example 221, 3-(3-(5-(4-Fluoro-benzyl)-furan-2-ylmethyl)-isoxazol-5-yl)-pyridin-2,6-diamine] | 1.56 (≈ 4.28 µM) | 0.39 (≈ 1.07 µM) | –
Nc1ccc(-c2cc(Cc3ccc(COc4ccccc4)cc3)no2)c(N)n1 [Example 148, 3-(3-(4-Phenoxymethyl-benzyl)-isoxazol-5-yl)-pyridin-2,6-diamine] | 0.2 (≈ 0.537 µM) | 0.2 (≈ 0.537 µM) | –
Nc1ccc(-c2cc(Cc3ccc(COc4ncccc4F)cc3)no2)c(N)n1 [Example 149, 3-(3-(4-(3-Fluoro-pyridin-2-yloxymethyl)-benzyl)-isoxazol-5-yl)-pyridin-2,6-diamine] | 6.25 (≈ 16 µM) | 1.56 (≈ 3.99 µM) | –
Nc1ncccc1-c1cc(Cc2ccc(COc3cc(F)ccn3)cc2)no1 [Example 59, 3-(3-(4-(4-Fluoro-pyridin-2-yloxymethyl)-benzyl)-isoxazol-5-yl)-pyridin-2-ylamine] | 0.39 (≈ 1.04 µM) | 0.39 (≈ 1.04 µM) | –
Cc1ccc(Oc2ccc(Cc3cc(-c4cccnc4N)on3)s2)cc1 [Example 48, 3-(3-(5-p-Tolyloxy-thiophen-2-ylmethyl)-isoxazol-5-yl)-pyridin-2-ylamine] | 0.39 (≈ 1.07 µM) | 0.2 (≈ 0.55 µM) | –
COc1cccc(COc2ccc(Cc3cc(-c4cccnc4N)on3)cc2)n1 [Example 99, 3-(3-(4-(6-Methoxy-pyridin-2-ylmethoxy)-benzyl)-isoxazol-5-yl)-pyridin-2-ylamine] | 3.13 (≈ 8.06 µM) | 0.78 (≈ 2.01 µM) | –
Cc1ccc(Cc2ccc(Cc3cc(-c4ccc(N)nc4N)on3)s2)cc1 [Example 156, 3-(3-(5-(4-Methyl-benzyl)-thiophen-2-ylmethyl)-isoxazol-5-yl)-pyridin-2,6-diamine] | 0.2 (≈ 0.531 µM) | 0.2 (≈ 0.531 µM) | –
Nc1ncc(Cl)cc1-c1cc(Cc2ccc(COc3ccccn3)cc2)no1 [Example 172] | 6.25 (≈ 15.9 µM) | 12.5 (≈ 31.8 µM) | –
CCCCOc1ccc(Cc2cc(-c3ccc(N)nc3N)on2)cc1 [Example 126, 3-(3-(4-Butoxy-benzyl)-isoxazol-5-yl)-pyridin-2,6-diamine] | 1.56 (≈ 4.61 µM) | 0.39 (≈ 1.15 µM) | –
CC(C)=CCOc1ccc(Cc2cc(-c3ccc(N)nc3N)on2)cc1 [Example 218, 3-(3-(4-(3-Methyl-2-but-2-enyloxy)-benzyl)-isoxazol-5-yl)-pyridin-2,6-diamine] | – | 0.1 (≈ 0.285 µM) | 0.2 (≈ 0.571 µM)
Nc1ccc(-c2cc(Cc3ccc(Br)cc3)no2)c(N)n1 [Example 220, 3-(3-(4-Bromo-benzyl)-isoxazol-5-yl)-pyridine-2,6-diamine] | 6.25 (≈ 18.1 µM) | 6.25 (≈ 18.1 µM) | –
Nc1ccc(-c2cc(Cc3cncc(Oc4ccccc4)c3)no2)c(N)n1 [Example 145, 3-(3-(5-Phenoxy-pyridin-3-ylmethyl)-isoxazol-5-yl)-pyridin-2,6-diamine] | 6.25 (≈ 17.4 µM) | 12.5 (≈ 34.8 µM) | –
Nc1ncccc1-c1cnn(Cc2ccc(Oc3ccccc3)cc2)c1 [Example 34, 3-(1-(4-Phenoxy-benzyl)-1H-pyrazol-4-yl)-pyridin-2-ylamine] | 0.78 (≈ 2.28 µM) | 0.39 (≈ 1.14 µM) | –

Compound | MIC [1, 3] [µg/mL] | MIC [2] [µg/mL] | MIC [1] [µg/mL]
Nc1nc(CO)ccc1-c1cc(Cc2ccc(OCc3ccccc3)cc2)no1 [Example 169] | 0.39 (≈ 1.01 µM) | 0.39 (≈ 1.01 µM) | –
CCCCOc1cccc(Cc2cc(-c3ccc(N)nc3N)on2)c1 [Example 124, 3-(3-(3-Butoxy-benzyl)-isoxazol-5-yl)-pyridin-2,6-diamine] | 0.2 (≈ 0.591 µM) | 0.39 (≈ 1.15 µM) | –
Nc1ncccc1-c1cc(Cc2ccc(Cc3ccccc3)nc2)no1 [Example 210, 3-(3-(6-Benzyl-pyridin-3-ylmethyl)-isoxazol-5-yl)-pyridin-2-ylamine] | 0.1 (≈ 0.292 µM) | 0.2 (≈ 0.584 µM) | –
Nc1ccc(-c2cc(Cc3ccc(OCc4ccc(F)cc4F)nc3)no2)c(N)n1 [Example 153, 3-(3-(6-(2,4-Difluoro-benzyloxy)-pyridin-3-ylmethyl)-isoxazol-5-yl)-pyridin-2,6-diamine] | 1.56 (≈ 3.81 µM) | 0.39 (≈ 0.953 µM) | –
Nc1ccc(-c2cc(Cc3ccc(Nc4ccccc4)cc3)no2)c(N)n1 [Example 129, 3-(3-(4-Phenylamino-benzyl)-isoxazol-5-yl)-pyridin-2,6-diamine] | 0.2 (≈ 0.56 µM) | 0.2 (≈ 0.56 µM) | –
Cc1cccc(COc2ccc(Cc3cc(-c4ccc(N)nc4N)on3)cc2)n1 [Example 23, 3-(3-(4-(6-Methyl-pyridin-2-ylmethoxy)-benzyl)-isoxazol-5-yl)-pyridin-2,6-diamine] | 0.78 (≈ 2.01 µM) | 1.56 (≈ 4.03 µM) | –
Nc1ncccc1-c1cc(Cc2ccc(OCc3ccc(F)cc3)cc2)no1 [Example 7, 3-(3-(4-(4-Fluoro-benzyloxy)-benzyl)-isoxazol-5-yl)-pyridin-2-ylamine] | 1.56 (≈ 4.16 µM) | 0.2 (≈ 0.533 µM) | –
Nc1ccc(-c2cc(Cc3ccc(Cc4ccccc4)nc3)no2)c(N)n1 [Example 223, 3-(3-(6-Benzyl-pyridin-3-ylmethyl)-isoxazol-5-yl)-pyridin-2,6-diamine] | 0.39 (≈ 1.09 µM) | 0.39 (≈ 1.09 µM) | –
Nc1ncccc1-c1cc(Cc2ccc(OCc3ccc(F)cn3)cc2F)no1 [Example 96, 3-(3-(2-Fluoro-4-(5-fluoro-pyridin-2-ylmethoxy)-benzyl)-isoxazol-5-yl)pyridin-2-ylamine] | 3.13 (≈ 7.94 µM) | 0.78 (≈ 1.98 µM) | –
Cc1ccc(Cc2ccc(Cc3cc(-c4cccnc4N)on3)cc2)o1 [Example 46, 3-(3-(4-(5-Methyl-furan-2-ylmethyl)-benzyl)-isoxazol-5-yl)-pyridin-2-ylamine] | 0.05 (≈ 0.145 µM) | 0.2 (≈ 0.579 µM) | –
Nc1ncccc1-c1cc(Cc2ccc(Oc3ccccc3F)cc2)no1 [Example 83] | 0.2 (≈ 0.553 µM) | 0.2 (≈ 0.553 µM) | –
Cc1ccc(OCc2ccc(Cc3cc(-c4cccnc4N)on3)cc2)nc1 [Example 44, 3-(3-(4-(5-Methyl-pyridin-2-yloxymethyl)-benzyl)-isoxazol-5-yl)-pyridin-2-ylamine] | 1.56 (≈ 4.19 µM) | 1.56 (≈ 4.19 µM) | –
Nc1ccc(-c2cnn(Cc3ccc(OCc4ccccc4)nc3)c2)c(N)n1 [Example 198, 3-(1-(6-Benzyloxy-pyridin-3-ylmethyl)-1H-pyrazol-4-yl)-pyridin-2,6-diamine] | 0.78 (≈ 2.09 µM) | 1.56 (≈ 4.19 µM) | –
Nc1ncccc1-c1cc(Cc2ccc(Oc3cccc(F)c3)nc2)no1 [Example 71, 3-(3-(6-(3-Fluoro-phenoxy)-pyridin-3-ylmethyl)-isoxazol-5-yl)-pyridin-2-ylamine] | 0.2 (≈ 0.552 µM) | 0.39 (≈ 1.08 µM) | –
Nc1ccc(-c2cc(Cc3ccc(CCc4ccco4)cc3)no2)c(N)n1 [Example 140, 3-(3-(4-(2-Furan-2-yl-ethyl)-benzyl)-isoxazol-5-yl)-pyridin-2,6-diamine] | 0.2 (≈ 0.555 µM) | 0.78 (≈ 2.16 µM) | –
Nc1ccc(-c2cc(Cc3ccc(OCc4ccncc4)cc3)no2)cn1 [Example 180] | 0.39 (≈ 1.09 µM) | 1.56 (≈ 4.35 µM) | –
CCCCOc1ccc(Cc2cc(-c3cccnc3N)on2)cc1 [Example 67, 3-(3-(4-Butoxy-benzyl)-isoxazol-5-yl)-pyridin-2-ylamine] | 1.56 (≈ 4.82 µM) | 0.78 (≈ 2.41 µM) | –
Nc1ncccc1-c1cc(Cc2ccc(OC3CCCCC3)cc2)no1 [Example 79, 3-(3-(4-Cyclohexyloxy-benzyl)-isoxazol-5-yl)-pyridin-2-ylamine] | 1.56 (≈ 4.46 µM) | 6.25 (≈ 17.9 µM) | –
Cc1ccc(COc2ccc(Cc3cc(-c4ccc(N)nc4N)on3)cc2)nc1 [Example 101] | 1.56 (≈ 4.03 µM) | 1.56 (≈ 4.03 µM) | –
Nc1ncccc1-c1cc(Cc2ccc(COc3ccccc3)cc2)no1 [Example 86, 3-(3-(4-Phenoxymethyl-benzyl)-isoxazol-5-yl)-pyridin-2-ylamine] | 0.05 (≈ 0.14 µM) | 0.2 (≈ 0.56 µM) | –
Nc1ccc(-c2cc(Cc3ccc(Oc4cccnc4)cc3)no2)c(N)n1 [Example 138, 3-(3-(4-(Pyridin-3-yloxy)-benzyl)-isoxazol-5-yl)-pyridin-2,6-diamine] | 0.78 (≈ 2.17 µM) | 0.78 (≈ 2.17 µM) | –
